The source of these data is patent US20140161342A1, “DENSITY-BASED METHOD OF COMPARING IMAGES AND DETECTION OF MORPHOLOGICAL CHANGES USING THE METHOD THEREOF” (CENTRE NATIONAL DE LA RECHERCHE SCIENTIFIQUE CNRS, priority 2011, published 2014).

Common to all, as to assay type: cell-based, Human
For assay [1], the system named is multivesicular bodies (MVB). Nature of the assay: Density-based comparison of multivesicular body (MVB) morphology, CD63 stain, micropatterned RPE-1 cells. To be noted: nocodazole 10 μM, 1 h at 4° C. and 1 h at 37° C., 40 cells of CG, 40 cells of TG. The procedure:
Human RPE-1 cells kept in growth medium were trypsinized and seeded on micropattern-printed coverslips as described in EP 1664266. To depolymerize microtubules, nocodazole was added to a final concentration of 10 μM to TG. TG and CG were both subsequently incubated for 1 h at 4° C. and 1 h at 37° C. Cells were fixed with 4% (wt/vol) paraformaldehyde (PFA) and proceeded for indirect immunofluorescence staining with primary α-CD63 antibodies (Invitrogen) to visualize MVB, α-GM130 antibodies to visualize the Golgi apparatus and α-Sec13 antibodies to visualize ERES as well as fluorophore-coupled secondary antibodies. 3D image stacks of n cells of each condition (TG and CG) were acquired with 100× magnification and Z-series every 0.2 μm. […] The coordinates of the segmented structures from all cells were aligned using the micropattern geometry and the coordinate sample of the TG was compared with the coordinate sample of the CG using the above-described method for each intracellular compartment analyzed.
Parts A and B of FIG. 5 illustrate representative fluorescent images of one cell from CG (designated by “Crtl”) and one cell from TG (designated by “NZ” for nocodazole) stained for MVB. […] As shown in prior art, the steady-sate three-dimensional organization of MVB is constant in micropatterned cells as analyzed here. […]

A further assay deals with Golgi apparatus. Description: Density-based comparison of Golgi apparatus morphology, GM130 stain, micropatterned RPE-1 cells. To be noted: nocodazole 10 μM, 15 cells of CG, 20 cells of TG. The procedure:
(§1) Human RPE-1 cells kept in growth medium were trypsinized and seeded on micropattern-printed coverslips as described in EP 1664266. To depolymerize microtubules, nocodazole was added to a final concentration of 10 μM to TG. TG and CG were both subsequently incubated for 1 h at 4° C. and 1 h at 37° C. Cells were fixed with 4% (wt/vol) paraformaldehyde (PFA) and proceeded for indirect immunofluorescence staining with primary α-CD63 antibodies (Invitrogen) to visualize MVB, α-GM130 antibodies to visualize the Golgi apparatus and α-Sec13 antibodies to visualize ERES as well as fluorophore-coupled secondary antibodies. 3D image stacks of n cells of each condition (TG and CG) were acquired with 100× magnification and Z-series every 0.2 μm. Images were deconvolved and segmented in order to detect signals that are fifteen-fold larger than noise. The coordinates of the segmented structures from all cells were aligned using the micropattern geometry and the coordinate sample of the TG was compared with the coordinate sample of the CG using the above-described method for each intracellular compartment analyzed.
Parts A and B of FIG. 6 illustrate representative fluorescent images of one cell from CG (designated by “Crtl”) and one cell from TG (designated by “NZ” for nocodazole) stained for the Golgi apparatus. […]

Assay [2] deals with endoplasmic reticulum exit sites (ERES). Nature of the assay: Density-based comparison of endoplasmic reticulum exit sites (ERES), Sec13 stain, micropatterned RPE-1 cells. To be noted: nocodazole 10 μM, 15 cells of CG, 11 cells of TG. The procedure: as §1
Parts A and B of FIG. 7 illustrate representative fluorescent images of one cell from CG (designated by “Crtl”) and one cell from TG (designated by “NZ” for nocodazole) stained for ERES. […]

Assay [3] deals with multivesicular bodies (MVB). Nature of the assay: Live cell analysis of MVB in unconstrained EGFP-CD63-expressing RPE-1 cells. Particulars: nocodazole 20 μM, last six time frames after addition. The procedure:
In this example, morphological changes in the steady-state organization of MVB were monitored in a time period between two instants t1 and t2 when using a drug treatment. Thus, the density-based method of the present invention is applied to life cell analysis. More precisely, MVB were analyzed in unconstrained cells before and after treatment with nocodazole, illustrating that the present invention is not limited to the comparison of constrained cells but can also apply to the comparative study of unconstrained cells.
EGFP-CD63-expressing stable cells (generated by transfection of the plasmid pEGFP-CD63, Ostrowski et al. NATURE CELL BIOLOGY, January 2010) into RPE-1 cells and selection with 500 μg/ml geneticin) were seeded on iwaki glass base dishes (Asahi Glass) for live cell observation. To depolymerize microtubules, nocodazole (NZ) was added to a final concentration of 20 μM. […] The first two groups contained images in the absence of the drug (CG1 and CG2) and the second two groups contained images in the presence of the drug (TG1 and TG2) recorded after the addition of the drug. […]
Groups CG1 and CG2 are non-treated control groups with 1080 and 1002 detected CD63-positive structures that were acquired before addition of the drug.
Groups TG1 and TG2 are treated test groups containing 1019 and 801 structures that were recorded after the addition of the drug. […]

Another assay has as its system microtubules. Nature of the assay: Density-based comparison of microtubules (β-tubulin stain), micropatterned RPE-1 cells. To be noted: nocodazole; 16 cells of CG, 16 cells of TG; tubulin structures. Also on record: dose or concentration left out as unconfirmed.

Protocol for microtubules: Human RPE-1 cells kept in growth medium were trypsinized and seeded on micropattern-printed coverslips as described in EP 1664266. To depolymerize microtubules, nocodazole was added to a final concentration of 10 M to TG. TG and CG were both subsequently incubated for 1 h at 4° C. and 1 h at 37° C. Cells were fixed with 4% (wt/vol) paraformaldehyde (PFA) and proceeded for indirect immunofluorescence staining with primary β-tubulin antibodies (Sigma-Aldrich) to visualize microtubules and fluorophore-coupled secondary antibodies.
3D image stacks of n cells of each condition (TG and CG) were acquired with 100× magnification and Z-series every 0.2 m. Images were deconvolved and segmented in order to detect signals that are larger than noise. To represent continuous structures (microtubules and Rab8-marked membranes domains) by a cloud of coordinates, we “cut” them in several small structures by increasing the watershed during segmentation. The coordinates of the segmented structures from all cells were aligned using the micropattern geometry and the coordinate sample of the TG was compared with the coordinate sample of the CG using the above-described method for each intracellular compartment analyzed.
Each coordinate stands for one fluorescent fragment. […]

As to `COC(=O)Nc1nc2ccc(C(=O)c3cccs3)cc2[nH]1` [nocodazole], the “P2D-value, comparison TG/CG” value in assay [1] is on record as 1.589*10^−5; with Golgi apparatus, 0.9524*10^−2; in assay [2] it was 0.3416*10^−3; in the assay on microtubules, 6.5862*10^−41. In addition, the “P3D-value, comparison TG/CG” value in assay [1] is 1.280*10^−11; in the assay on Golgi apparatus, 1.8741*10^−2; in assay [2], 0.1118*10^−6; in the assay on microtubules it was 2.7758*10^−228. Also, the “P2D-value, non-treated group CG1 vs treated group TG2” value in assay [3] is given as 4.00*10^−6. Besides, the “P3D-value, non-treated group CG1 vs treated group TG2” value in assay [3] is listed as 4.84*10^−6.
